Counter-ions that a name gives are not always drawn.
Target: T1, Human V1b receptor (Homo sapiens, UniProt P47901)
T1 sequence (P47901 1-424): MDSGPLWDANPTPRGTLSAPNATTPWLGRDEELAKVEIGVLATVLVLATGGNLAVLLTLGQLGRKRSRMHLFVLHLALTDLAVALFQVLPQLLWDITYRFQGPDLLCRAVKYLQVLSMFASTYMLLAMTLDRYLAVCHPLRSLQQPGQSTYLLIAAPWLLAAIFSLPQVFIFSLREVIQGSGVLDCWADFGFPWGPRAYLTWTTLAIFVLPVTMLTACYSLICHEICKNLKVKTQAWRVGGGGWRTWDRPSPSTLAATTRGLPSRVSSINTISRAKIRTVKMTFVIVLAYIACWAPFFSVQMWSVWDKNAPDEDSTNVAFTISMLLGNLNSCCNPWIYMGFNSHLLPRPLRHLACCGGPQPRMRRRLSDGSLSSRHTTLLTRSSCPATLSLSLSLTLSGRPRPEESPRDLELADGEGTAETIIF
Experiment: Binding test for V1b receptor ([3H]AVP displacement, crude membrane preparation)
Design: expressed in transfected cells; host or cells: 293FT cells (Invitrogen), transient expression; crude membrane preparation
Conditions: [3H]AVP 0.4 to 1 nmol/L; membranes of 293FT cells transiently expressing human V1b receptor; room temperature, 60 minutes
Method: Binding Test for V1b Receptor
Human V1b receptor was transiently expressed in 293FT cells (Invitrogen). The cells were collected and were homogenated in a 15 mmol/L tris-hydrochloric acid buffer (pH 7.4, containing 2 mmol/L magnesium chloride, 0.3 mmol/L ethylenediaminetetracetic acid, and 1 mmol/L glycol ether diaminetetraacetic acid). The resulting homogenate was centrifuged at 50,000×g at 4° C. for 20 minutes. The precipitate was resuspended in a 75 mmol/L tris-hydrochloric acid buffer (pH 7.4, containing 12.5 mmol/L magnesium chloride, 0.3 mmol/L ethylenediaminetetracetic acid, 1 mmol/L glycol ether diamine tetraacetic acid, and 250 mmol/L sucrose) to give a crude membrane preparation, which was stored at −80° C. until the binding test. In the binding test, the crude membrane preparation was diluted with a 50 mmol/L tris-hydrochloric acid buffer (pH 7.4, containing 10 mmol/L magnesium chloride and 0.1% bovine serum albumin), and test compound was serially diluted with DMSO. The diluted crude membrane preparation was incubated with each test compound (final concentration of 0.01 nmol/L to 1 μmol/L) and [^3H]AVP (final concentration: 0.4 to 1 nmol/L) at room temperature for 60 minutes. After the incubation, the mixture was suction filtered through a GF/C filter pretreated with 0.3% polyethyleneimine. The GF/C filter was dried, and a scintillator was added thereto. The radioactivity remaining on the filter was measured using TopCount (PerkinElmer Inc.). The radioactivity in the presence of 10 μmol/L of unlabeled AVP was defined as 0%, and the radioactivity in the absence of unlabeled AVP was defined as 100%. A dose-response curve was plotted from radioactivities in the presence of a test compound at various concentrations, and the 50% inhibitory concentration (IC50 value) of the compound was calculated.

Row | IC50 [nM] | Structure (SMILES)
1 | 10 to 100 | COc1cc(-c2nn(-c3ccc(CCN4CCC(F)(F)CC4)cc3)c(=O)n2CC(=O)NC(C)C)ccc1F [Ca-18, 2-[1-{4-[2-(4,4-Difluoropiperidin-1-yl)ethyl]phenyl}-3-(4-fluoro-3-methoxyphenyl)-5-oxo-1,5-dihydro-4H-1,2,4-triazol-4-yl]-N-(propan-2-yl)acetamide trifluoroacetate]
2 | 10 to 100 | COc1cc(-c2nn(-c3ccc(CCN4CCOCC4C)cc3)c(=O)n2CC(=O)NC(C)C)ccc1F (centres unmarked) [Ca-22, 2-[3-(4-Fluoro-3-methoxyphenyl)-1-{4-[2-(3-methylmorpholin-4-yl)ethyl]phenyl}-5-oxo-1,5-dihydro-4H-1,2,4-triazol-4-yl]-N-(propan-2-yl)acetamide]
3 | 17 | CC(C)NC(=O)Cn1c(-c2ccc(F)c(Cl)c2)nn(-c2ccc(CCN3CCCCC3)cc2)c1=O [Da-1, 2-[3-(3-Chloro-4-fluorophenyl)-5-oxo-1-{4-[2-(piperidin-1-yl)ethyl]phenyl}-1,5-dihydro-4H-1,2,4-triazol-4-yl]-N-(propan-2-yl)acetamide]
4 | 12 | CC(C)NC(=O)Cn1c(-c2ccc(F)c(Cl)c2)nn(-c2ccc(CCN3CCCOCC3)cc2)c1=O [Da-4, 2-[3-(3-Chloro-4-fluorophenyl)-1-{4-[2-(1,4-oxazepan-4-yl)ethyl]phenyl}-5-oxo-1,5-dihydro-4H-1,2,4-triazol-4-yl]-N-(propan-2-yl)acetamide]
5 | 46 | CC(C)NC(=O)Cn1c(-c2cccc(S(C)(=O)=O)c2)nn(-c2ccc(CCN3CCOCC3)cc2)c1=O [Ia-1, 2-(3-[3-(Methylsulfonyl)phenyl]-1-{4-[2-(morpholin-4-yl)ethyl]phenyl}-5-oxo-1,5-dihydro-4H-1,2,4-triazol-4-yl)-N-(propan-2-yl)acetamide]
6 | 166 | COc1cc(-c2nn(-c3ncc(CCN4CCOCC4)cn3)c(=O)n2CC(=O)NC(C)C)ccc1F [Cd-1, 2-[3-(4-Fluoro-3-methoxyphenyl)-1-{5-[2-(morpholin-4-yl)ethyl]pyrimidin-2-yl}-5-oxo-1,5-dihydro-4H-1,2,4-triazol-4-yl]-N-(propan-2-yl)acetamide]
7 | 863 | COc1cc(-c2nn(-c3ccc(CN4CCN(C)CC4)cc3)c(=O)n2CC(=O)NC(C)C)ccc1F [Cd-4, 2-[3-(4-Fluoro-3-methoxyphenyl)-1-{4-[(4-methylpiperazin-1-yl)methyl]phenyl}-5-oxo-1,5-dihydro-4H-1,2,4-triazol-4-yl]-N-(propan-2-yl)acetamide]
8 | 100 to 1000 | COc1cc(-c2nn(-c3ccc(CCN4CCN(C(C)=O)CC4)cc3)c(=O)n2CC(=O)NC(C)C)ccc1F [Ca-26, 2-[1-{4-[2-(4-Acetylpiperazin-1-yl)ethyl]phenyl}-3-(4-fluoro-3-methoxyphenyl)-5-oxo-1,5-dihydro-4H-1,2,4-triazol-4-yl]-N-(propan-2-yl)acetamide trifluoroacetate]
9 | 100 to 1000 | COc1cc(-c2nn(-c3ccc(CCN4CCC(C)(O)CC4)cc3)c(=O)n2CC(=O)NC(C)C)ccc1F [Ca-27, 2-[3-(4-Fluoro-3-methoxyphenyl)-1-{4-[2-(4-hydroxy4-methylpiperidin-1-yl)ethyl]phenyl}-5-oxo-1,5-dihydro-4H-1,2,4-triazol-4-yl]-N-(propan-2-yl)acetamide trifluoroacetate]

Further lines, the compound ahead of its results:

Row | Structure (SMILES) | IC50 [nM]
10 | COc1cc(-c2nn(-c3ccc(CCN4CCC5CCCCC5C4)cc3)c(=O)n2CC(=O)NC(C)C)ccc1F (centres unmarked) [Ca-15, 2-[3-(4-Fluoro-3-methoxyphenyl)-1-{4-[2-(octahydroisoquinolin-2(1H)-yl)ethyl]phenyl}-5-oxo-1,5-dihydro-4H-1,2,4-triazol-4-yl]-N-(propan-2-yl)acetamide] | 10 to 100
11 | CC(C)NC(=O)Cn1c(-c2cccc(Cl)c2)nn(-c2ccc(CCN3CC4CCC(C3)O4)cc2)c1=O [Aa-9, 2-[3-(3-Chlorophenyl)-1-{4-[2-(8-oxa-3-azabicyclo[3.2.1]oct-3-yl)ethyl]phenyl}-5-oxo-1,5-dihydro-4H-1,2,4-triazol-4-yl]-N-(propan-2-yl)acetamide] | 18
12 | COc1cc(-c2nn(-c3ccc(CCN4C5CCC4CC(O)C5)cn3)c(=O)n2CC(=O)NC(C)C)ccc1F (centres unmarked) [Cb-4, 2-[3-(4-Fluoro-3-methoxyphenyl)-1-{5-[2-(3-hydroxy-8-azabicyclo[3.2.1]oct-8-yl)ethyl]pyridin-2-yl}-5-oxo-1,5-dihydro-4H-1,2,4-triazol-4-yl]-N-(propan-2-yl)acetamide] | 8.6
13 | CC(C)NC(=O)Cn1c(-c2cccc(Cl)c2)nn(-c2ccc(CCN3CCOCC3)nc2)c1=O [Ac-2, 2-[3-(3-Chlorophenyl)-1-{6-[2-(morpholin-4-yl)ethyl]pyridin-3-yl}-5-oxo-1,5-dihydro-4H-1,2,4-triazol-4-yl]-N-(propan-2-yl)acetamide] | 79
14 | CC(C)NC(=O)Cn1c(-c2cccc(Cl)c2)nn(-c2ccc(CC(C)N3C4CCC3COC4)cc2)c1=O (centres unmarked) [Ad-14, 2-[3-(3-Chlorophenyl)-1-{4-[2-(3-oxa-8-azabicyclo[3.2.1]oct-8-yl)propyl]phenyl}-5-oxo-1,5-dihydro-4H-1,2,4-triazol-4-yl]-N-(propan-2-yl)acetamide] | 0.54
15 | COc1cc(-c2nn(-c3ccc(CCN4C5CCC4COC5)cn3)c(=O)n2CC(=O)NC(C)C)ccc1F [Cb-5, 2-[3-(4-Fluoro-3-methoxyphenyl)-1-{5-[2-(3-oxa-8-azabicyclo[3.2.1]oct-8-yl)ethyl]pyridin-2-yl}-5-oxo-1,5-dihydro-4H-1,2,4-triazol-4-yl]-N-(propan-2-yl)acetamide] | 16
16 | CC(C)NC(=O)Cn1c(-c2cccc(Cl)c2)nn(-c2ccc(CCN3C4CCC3CC(O)C4)cn2)c1=O (centres unmarked) [Ab-4, 2-[3-(3-Chlorophenyl)-1-{5-[2-(3-hydroxy-8-azabicyclo[3.2.1]oct-8-yl)ethyl]pyridin-2-yl}-5-oxo-1,5-dihydro-4H-1,2,4-triazol-4-yl]-N-(propan-2-yl)acetamide] | 20
17 | COc1cccc(-c2nn(-c3ccc(CCN4C5CCC4COC5)cn3)c(=O)n2CC(=O)NC(C)(C)C)c1 [Bd-2, N-Tert-Butyl-2-[3-(3-methoxyphenyl)-1-{5-[2-(3-oxa-8-azabicyclo[3.2.1]oct-8-yl)ethyl]pyridin-2-yl}-5-oxo-1,5-dihydro-4H-1,2,4-triazol-4-yl]acetamide] | 3.6
18 | COc1cc(-n2nc(-c3cccc(Cl)c3)n(CC(=O)NC(C)C)c2=O)ccc1CCN1CCOCC1 [Ad-9, 2-[3-(3-Chlorophenyl)-1-{3-methoxy-4-[2-(morpholin-4-yl)ethyl]phenyl}-5-oxo-1,5-dihydro-4H-1,2,4-triazol-4-yl]-N-(propan-2-yl)acetamide] | 2.3
19 | COc1cc(-c2nn(-c3ccc(CCN4CCSCC4)cc3)c(=O)n2CC(=O)NC(C)C)ccc1F [Ca-8, 2-[3-(4-Fluoro-3-methoxyphenyl)-5-oxo-1-{4-[2-(thiomorpholin-4-yl)ethyl]phenyl}-1,5-dihydro-4H-1,2,4-triazol-4-yl]-N-(propan-2-yl)acetamide] | < 10
20 | CC(C)NC(=O)Cn1c(-c2cccc(Cl)c2)nn(-c2ccc(CCN3CCCCC3)cc2)c1=O [Aa-11, 2-[3-(3-Chlorophenyl)-5-oxo-1-{4-[2-(piperidin-1-yl)ethyl]phenyl}-1,5-dihydro-4H-1,2,4-triazol-4-yl]-N-(propan-2-yl)acetamide] | 37
21 | COc1cc(-c2nn(-c3ccc(CCN4CCC(C(N)=O)CC4)cc3)c(=O)n2CC(=O)NC(C)C)ccc1F [Ca-13, 1-[2-(4-{3-(4-Fluoro-3-methoxyphenyl)-5-oxo-4-[2-oxo-2-(propan-2-ylamino)ethyl]-4,5-dihydro-1H-1,2,4-triazol-1-yl}phenyl)ethyl]piperidine 4-carboxamide] | 100 to 1000
22 | O=C(Cn1c(-c2cccc(Cl)c2)nn(-c2ccc(CCN3CCOCC3)cc2)c1=O)NC1CCC1 [Ad-4, 2-[3-(3-Chlorophenyl)-1-{4-[2-(morpholin-4-yl)ethyl]phenyl}-5-oxo-1,5-dihydro-4H-1,2,4-triazol-4-yl]-N-cyclobutylacetamide] | 102
23 | CC(C)NC(=O)Cn1c(-c2cccc(Cl)c2)nn(-c2ccc(CCN)cc2)c1=O [Ad-21, 2-[3-(3-Chlorophenyl)-1-[4-(2-aminoethyl)phenyl]-5-oxo-1,5-dihydro-4H-1,2,4-triazol-4-yl]-N-(propan-2-yl)acetamide] | 365
